# Paper PMC12203311, “Design, synthesis, in silico and in vitro evaluation of pyrrole–indole hybrids as dual tubulin and aromatase inhibitors with potent anticancer activities” (RSC Advances, 2025)
# Tests used:
# HL-60 (TB) = assay: NCI60 five-dose screen; assay type: cell-based; details: Homo sapiens, leukemia; for CC50: read-out: LC50 (the source's name)
# MOLT-4 = assay: NCI60 five-dose screen; assay type: cell-based; details: Homo sapiens, MOLT-4, leukemia; for CC50: read-out: LC50 (the source's name)
# RPMI-8226 = assay: NCI60 five-dose screen; assay type: cell-based; details: Homo sapiens, RPMI-8226, leukemia; for CC50: read-out: LC50 (the source's name)
# HOP-62 = assay: NCI60 five-dose screen; assay type: cell-based; details: Homo sapiens, HOP-62, NSC lung cancer; for CC50: read-out: LC50 (the source's name)
# HOP-92 = assay: NCI60 five-dose screen; assay type: cell-based; details: Homo sapiens, HOP-92, NSC lung cancer; for CC50: read-out: LC50 (the source's name)
# NCI-H226 = assay: NCI60 five-dose screen; assay type: cell-based; details: Homo sapiens, NCI-H226, NSC lung cancer; for CC50: read-out: LC50 (the source's name)
# NCI-H23 = assay: NCI60 five-dose screen; assay type: cell-based; details: Homo sapiens, NCI-H23, NSC lung cancer; for CC50: read-out: LC50 (the source's name)
# NCI-H460 = assay: NCI60 five-dose screen; assay type: cell-based; details: Homo sapiens, NCI-H460, NSC lung cancer; for CC50: read-out: LC50 (the source's name)
# HCC-2998 = assay: NCI60 five-dose screen; assay type: cell-based; details: Homo sapiens, HCC-2998, colon cancer; for CC50: read-out: LC50 (the source's name)
# HCT-116 = assay: NCI60 five-dose screen; assay type: cell-based; details: Homo sapiens, HCT-116, colon cancer; for CC50: read-out: LC50 (the source's name)
# HCT-15 = assay: NCI60 five-dose screen; assay type: cell-based; details: Homo sapiens, HCT-15, colon cancer; for CC50: read-out: LC50 (the source's name)
# HT29 = assay: NCI60 five-dose screen; assay type: cell-based; details: Homo sapiens, HT-29, HT29, colon cancer; for CC50: read-out: LC50 (the source's name)
# SF-295 = assay: NCI60 five-dose screen; assay type: cell-based; details: Homo sapiens, SF-295, CNS cancer; for CC50: read-out: LC50 (the source's name)
# LOX IMVI = assay: NCI60 five-dose screen; assay type: cell-based; details: Homo sapiens, melanoma; for CC50: read-out: LC50 (the source's name)
# M14 = assay: NCI60 five-dose screen; assay type: cell-based; details: Homo sapiens, M14, melanoma; for CC50: read-out: LC50 (the source's name)
# MDA-MB-435 = assay: NCI60 five-dose screen; assay type: cell-based, human; details: Homo sapiens; for CC50: MDA-MB-435, MDA-MB-435, melanoma, read-out: LC50 (the source's name); for GI50: MDA-MB-435, melanoma
# SK-MEL-2 = assay: NCI60 five-dose screen; assay type: cell-based; details: Homo sapiens, SK-MEL-2, melanoma; for CC50: read-out: LC50 (the source's name)
# UACC-257 = assay: NCI60 five-dose screen; assay type: cell-based; details: Homo sapiens, UACC-257, melanoma; for CC50: read-out: LC50 (the source's name)
# IGROV1 = assay: NCI60 five-dose screen; assay type: cell-based; details: Homo sapiens, IGROV-1; IGROV1, ovarian cancer
# OVCAR-3 = assay: NCI60 five-dose screen; assay type: cell-based; details: Homo sapiens, OVCAR-3, ovarian cancer; for CC50: read-out: LC50 (the source's name)
# OVCAR-5 = assay: NCI60 five-dose screen; assay type: cell-based; details: Homo sapiens, OVCAR-5, ovarian cancer; for CC50: read-out: LC50 (the source's name)
# OVCAR-8 = assay: NCI60 five-dose screen; assay type: cell-based; details: Homo sapiens, OVCAR-8, ovarian cancer; for CC50: read-out: LC50 (the source's name)
# CAKI-1 = assay: NCI60 five-dose screen; assay type: cell-based; details: Homo sapiens, CAKI-1, renal cancer; for CC50: read-out: LC50 (the source's name)
# UO-31 = assay: NCI60 five-dose screen; assay type: cell-based; details: Homo sapiens, UO-31, renal cancer; for CC50: read-out: LC50 (the source's name)
# PC-3 = assay: NCI60 five-dose screen; assay type: cell-based; details: Homo sapiens, PC-3, prostate cancer; for CC50: read-out: LC50 (the source's name)
# DU-145 = assay: NCI60 five-dose screen; assay type: cell-based; details: Homo sapiens, DU-145, prostate cancer; for CC50: read-out: LC50 (the source's name)
# MDA-MB-231/ATCC = assay: NCI60 five-dose screen; assay type: cell-based; details: Homo sapiens, breast cancer; for CC50: read-out: LC50 (the source's name)
# HS 578T = assay: NCI60 five-dose screen; assay type: cell-based; details: Homo sapiens, breast cancer; for CC50: read-out: LC50 (the source's name)
# BT-549 = assay: NCI60 five-dose screen; assay type: cell-based; details: Homo sapiens, BT-549, breast cancer; for CC50: read-out: LC50 (the source's name)
# MDA-MB-468 = assay: NCI60 five-dose screen; assay type: cell-based; details: Homo sapiens, MDA-MB-468, breast cancer; for CC50: read-out: LC50 (the source's name)
# [1] = tested on: T47D breast cancer cell line; assay: Cytotoxicity MTT assay, T47D; assay type: cell-based, human; details: Homo sapiens, T47D; MTT, 48 hours
# Outline: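 10 000 cells/well, overnight attachment; compound 48 h in DMEM/10% FBS, 37 °C, 5% CO2. MTT 0.5 mg mL^−1, 3 h; formazan in DMSO; A570. % viability vs DMSO vehicle.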
compound,measurement,setting,value
"O=C(N/N=C/c1cc(Br)c[nH]1)c1[nH]c2ccc(Br)cc2c1-c1ccccc1 [Derivative 3e, (E)-5-Bromo-N′-((4-bromo-1H-pyrrol-2-yl)methylene)-3-phenyl-1H-indole-2-carbohydrazide]",GI50,HL-60 (TB),0.327 µM
same,CC50,HL-60 (TB),> 100 µM
same,GI50,MOLT-4,0.375 µM
same,CC50,MOLT-4,> 100 µM
same,GI50,RPMI-8226,0.346 µM
same,CC50,RPMI-8226,> 100 µM
same,GI50,HOP-62,0.546 µM
same,CC50,HOP-62,> 100 µM
same,GI50,HOP-92,1.51 µM
same,CC50,HOP-92,26.3 µM
same,GI50,NCI-H226,0.382 µM
same,CC50,NCI-H226,29.9 µM
same,GI50,NCI-H23,0.298 µM
same,CC50,NCI-H23,26.9 µM
same,GI50,NCI-H460,0.353 µM
same,CC50,NCI-H460,43.2 µM
same,GI50,HCC-2998,0.296 µM
same,CC50,HCC-2998,15.6 µM
same,GI50,HCT-116,0.242 µM
same,CC50,HCT-116,85 µM
same,GI50,HCT-15,0.28 µM
same,CC50,HCT-15,13.5 µM
same,GI50,HT29,0.345 µM
same,CC50,HT29,8.24 µM
same,GI50,SF-295,0.254 µM
same,CC50,SF-295,25.9 µM
same,GI50,LOX IMVI,0.36 µM
same,CC50,LOX IMVI,6.98 µM
same,GI50,M14,0.27 µM
same,CC50,M14,20.2 µM
same,CC50,MDA-MB-435,24.3 µM
same,GI50,MDA-MB-435,0.207 µM
same,GI50,SK-MEL-2,0.322 µM
same,CC50,SK-MEL-2,38.1 µM
same,GI50,UACC-257,1.09 µM
same,CC50,UACC-257,47 µM
same,GI50,IGROV1,0.44 µM
same,GI50,OVCAR-3,0.302 µM
same,CC50,OVCAR-3,17.3 µM
same,GI50,OVCAR-5,0.346 µM
same,CC50,OVCAR-5,26.5 µM
same,GI50,OVCAR-8,0.304 µM
same,CC50,OVCAR-8,18.2 µM
same,GI50,CAKI-1,0.329 µM
same,CC50,CAKI-1,29 µM
same,GI50,UO-31,0.618 µM
same,CC50,UO-31,28.1 µM
same,GI50,PC-3,0.382 µM
same,CC50,PC-3,38.1 µM
same,GI50,DU-145,0.352 µM
same,CC50,DU-145,29.7 µM
same,GI50,MDA-MB-231/ATCC,0.215 µM
same,CC50,MDA-MB-231/ATCC,14.3 µM
same,GI50,HS 578T,0.34 µM
same,CC50,HS 578T,> 100 µM
same,GI50,BT-549,0.314 µM
same,CC50,BT-549,36.2 µM
same,GI50,MDA-MB-468,0.231 µM
same,CC50,MDA-MB-468,13 µM
same,IC50,[1],2.4 ± 1.4 µM
"O=C(N/N=C/c1cc(Br)c(Br)[nH]1)c1[nH]c2ccc(Br)cc2c1-c1ccccc1 [Derivative 3f, (E)-5-Bromo-N′-((4,5-dibromo-1H-pyrrol-2-yl)methylene)-3-phenyl-1H-indole-2-carbohydrazide]",GI50,HL-60 (TB),2.38 µM
same,CC50,HL-60 (TB),88.8 µM
same,GI50,MOLT-4,3.38 µM
same,CC50,MOLT-4,> 100 µM
same,GI50,RPMI-8226,2.27 µM
same,CC50,RPMI-8226,> 100 µM
same,GI50,HOP-62,3.52 µM
same,CC50,HOP-62,> 100 µM
same,GI50,HOP-92,1.88 µM
same,CC50,HOP-92,46 µM
same,GI50,NCI-H226,2.28 µM
same,CC50,NCI-H226,32.5 µM
same,GI50,NCI-H23,2.62 µM
same,CC50,NCI-H23,34 µM
same,GI50,NCI-H460,2.53 µM
same,CC50,NCI-H460,32.7 µM
same,GI50,HCC-2998,2.3 µM
same,CC50,HCC-2998,24 µM
same,GI50,HCT-116,3.24 µM
same,CC50,HCT-116,> 100 µM
same,GI50,HCT-15,2.7 µM
same,CC50,HCT-15,33.1 µM
same,GI50,HT29,2.33 µM
same,CC50,HT29,20.8 µM
same,GI50,SF-295,2.2 µM
same,CC50,SF-295,26.9 µM
same,GI50,LOX IMVI,2.31 µM
same,CC50,LOX IMVI,31.8 µM
same,GI50,M14,2.81 µM
same,CC50,M14,66.1 µM
same,CC50,MDA-MB-435,19.6 µM
same,GI50,MDA-MB-435,1.01 µM
same,GI50,SK-MEL-2,2.68 µM
same,CC50,SK-MEL-2,36.3 µM
same,GI50,UACC-257,3.24 µM
same,CC50,UACC-257,45.7 µM
same,GI50,IGROV1,0.53 µM
same,GI50,OVCAR-3,2.3 µM
same,CC50,OVCAR-3,24.5 µM
same,GI50,OVCAR-5,3.6 µM
same,CC50,OVCAR-5,40.2 µM
same,GI50,OVCAR-8,1.98 µM
same,CC50,OVCAR-8,17.2 µM
same,GI50,CAKI-1,1.38 µM
same,CC50,CAKI-1,40.9 µM
same,GI50,UO-31,1.94 µM
same,CC50,UO-31,38.5 µM
same,GI50,PC-3,2.29 µM
same,CC50,PC-3,63.3 µM
same,GI50,DU-145,3.18 µM
same,CC50,DU-145,33.9 µM
same,GI50,MDA-MB-231/ATCC,2.49 µM
same,CC50,MDA-MB-231/ATCC,26.3 µM
same,GI50,HS 578T,1.82 µM
same,CC50,HS 578T,> 100 µM
same,GI50,BT-549,3.69 µM
same,CC50,BT-549,90.8 µM
same,GI50,MDA-MB-468,2.09 µM
same,CC50,MDA-MB-468,22.8 µM
same,IC50,[1],19.1 ± 5.4 µM
